Where two headings read alike, the source gives them in different places.
Legend:
P. aeruginosa biofilms = settings: for Average CFU: 24 h treatment of 24 h old biofilm
Text: (§1) The wild-type P. aeruginosa PAO1 used for the planktonic and biofilm experiments was obtained from the Pseudomonas Genetic Stock Center (www.pseudomonas.med.ecu.edu, strain PAO0001). The wild-type S. aureus 8325-4, used for planktonic and biofilm experiments was described by Novick, R. P. 1967. The following bacteria were obtained from the Department of Clinical Microbiology, Copenhagen University Hospital, Denmark: E. coli (wild type and clinical ESBL producing strains), S. aureus (wild type and clinical MRSA strains) and Klebsiella pneumoniae (clinical ESBL producing strain).
For plating, Luria broth (LB) medium mix with 2.0% agar was used. For all experiments including bacterial biofilms, AB minimal medium supplemented with glucose was used except if different is mentioned. AB minimal medium consists of: A standard buffer system consisting of (NH4)2SO4 (15.1 mM), Na2HPO4.2H2O (33.7 mM) and KH2PO4 (22.0 mM. NaCl (0.051 M), MgCl2 (1 mM), CaCl2 (0.1 mM), and trace metals (100 μl/liter). The trace metal solution contained CaSa4.2H2O (200 mg/liter), FeSO4.7H2O (200 mg/liter), MnSO4.H2O (20 mg/liter), CuSO4.5H2O (20 mg/liter), ZnSO4.7H2O (20 mg/liter), CoSO4.7H2O (10 mg/liter), NaMoO4.H2O, and H3BO3 (5 mg/liter).
(§2) Two types of biofilm setups were used, micropore filter assay and a microtitter plate assay: • The microtitter plate assay is based on biofilms growing in microtiter dishes with AB minimal medium containing 0.3 mM glucose as described by O′ toole et al (1999). • The Micro-pore assay is based on biofilms growing on a micropore filter on AB minimal agar plates. The micropore filters are placed on top of an AB minimal agar plate. Bacteria are propagated on the micro-pore filters as spots of 20 μl bacterial suspension and incubated at 37° C. For a biofilm to develop the filters were transferred to a fresh AB minimal agar plate once after 24 hours. The biofilm were mature and ready for use after 48 hours incubation in total, at 37° C. Planktonic cultures were grown in shake flasks at 37° C. The microtitter plate assay for biofilm tolerance to sodium diacetate was assessed by exchanging the AB minimal medium of 24 h old biofilms with AB minimal medium supplemented with different concentrations of sodium diacetate.
The antimicrobial effect was determined by plating the treated and non-treated biofilm. To ensure complete removal of all adhering bacteria the wells of the microtitter plate were washed mechanically.

[1] = test system: E. coli (wild type and clinical ESBL producing strains) biofilm
Text: as §1, §2
(§3) To elucidate the efficacy of dry sodium diacetate on microbial biofilms of P. aeruginosa. Bacteria were propagated on a micropore filter for biofilm formation. The Micro-pore filters were placed on top of an LB-agar plate. Bacteria were spread on the micro-pore filters as spots and incubated at 37° C. For a biofilm to develop the filters were transferred to a fresh LB-agar plate once after 24 hours. The biofilm were mature and ready for use after 48 hours incubation in total, at 37° C.
(§4) After 48 hours NaHAc2 was added on top of the biofilm spot, either directly or between two pieces of gauze. The control was plain gauze. All treatments were incubated for 24 hours. The effect was evaluated by replication of the micro pore filter after treatment. The endpoint was growth or no growth of bacteria after the treatment.

[2] = test system: Klebsiella pneumoniae (clinical ESBL producing strain) biofilm; settings: dry sodium diacetate, same method as example 3
Text: as §1, §2, §3, §4

[3] = test system: P. aeruginosa mature biofilm
Text: as §1, §2, §3, §4

[4] = test system: S. aureus (wild type and clinical MRSA strains) biofilm; settings: dry sodium diacetate, same method as example 3
Text: as §1, §2, §3, §4

[5] = test system: bacterially infected chronic wounds; settings: dressings with 0.2 mg/cm^2 or less on surface, with negative pressure wound therapy; initial results
Description: To elucidate the clinical potential of sodium diacetate in wound care human clinical trials are being performed in a hospital setting to test the efficacy of dressings incorporating sodium diacetate on bacterially infected chronic wounds.
Dressings are used employing 0.2 mg/cm^2 or less of sodium diacetate on the surface of the dressing material. Incorporating smaller amounts of sodium diacetate is tested incrementally. Initial trials are performed using negative pressure wound therapy in combination with dressings incorporating sodium diacetate as described herein. Trials are performed on test subjects having chronic wounds due to infection with for example P. aeruginosa and with reduced immune responses due to for example, drug abuse, diabetes, or obesity.

[6] = 24 hours old static biofilms in AB minimal medium

CC(=O)O.CC(=O)[O-].[Na+] [sodium diacetate]
Average CFU (P. aeruginosa biofilms; 0.25% NaHAc2 (w/v)): 1.15E+09 CFU | Average CFU (P. aeruginosa biofilms; 0.50% NaHAc2 (w/v)): 3.12E+08 CFU | Average CFU (P. aeruginosa biofilms; 0.75% NaHAc2 (w/v)): 9.63E+07 CFU | Average CFU (P. aeruginosa biofilms; 1.00% NaHAc2 (w/v)): 8.05E+06 CFU | Average CFU (P. aeruginosa biofilms; 1.25% NaHAc2 (w/v)): 1.96E+05 CFU | Average CFU (P. aeruginosa biofilms; 1.50% NaHAc2 (w/v)): 1.98E+03 CFU | Average CFU (P. aeruginosa biofilms; 1.75% NaHAc2 (w/v)): 0 CFU | Average CFU (P. aeruginosa biofilms; 2.00% NaHAc2 (w/v)): 0 CFU | Average CFU (P. aeruginosa biofilms; 2.25% NaHAc2 (w/v)): 0 CFU | Average CFU (P. aeruginosa biofilms; 2.50% NaHAc2 (w/v)): 0 CFU | Average CFU (P. aeruginosa biofilms; 2.75% NaHAc2 (w/v)): 0 CFU | Average CFU (P. aeruginosa biofilms; 3% NaHAc2 (w/v)): 0 CFU | concentration at which an effect of the salt is already seen (P. aeruginosa biofilms; [6]): 0.25 % (W/V) | concentration giving complete killing of the biofilm bacteria (P. aeruginosa biofilms; [6]): 1.75 % (W/V) | concentration giving complete killing of the biofilm bacteria (P. aeruginosa biofilms; 24 hours old static biofilms in AB minimal medium, listed as NaHAc2): ≥ 1.75 % (W/V) | killing of biofilm (P. aeruginosa biofilms; even the lowest concentrations of NaHAc2): partial killing | growth or no growth of bacteria after treatment ([1]; between gauze soaked in wounds buffer (FIG. 4)): complete eradication | growth or no growth of bacteria after treatment ([1]; dry between gauze (FIG. 4)): complete eradication | eradication of biofilm infection ([1]; dry sodium diacetate, same method as example 3, wild type and clinical ESBL producing strains): completely eradicated | growth or no growth of bacteria after treatment ([1]; foam soaked in wounds buffer (FIG. 4)): complete eradication | eradication of biofilm infection [2]: completely eradicated | growth or no growth of bacteria after treatment ([3]; NaHAc2 on top of 48 h biofilm spot, directly or between two pieces of gauze, 24 hours): completely eradicates | growth or no growth of bacteria after treatment ([3]; treatment 1: dry between gauze): complete eradication | growth or no growth of bacteria after treatment ([3]; treatment 2: between gauze soaked in wounds buffer): complete eradication | growth or no growth of bacteria after treatment ([3]; treatment 3: foam soaked in wounds buffer): complete eradication | growth or no growth of bacteria after treatment ([3]; treatment 4: dry): complete eradication | eradication of biofilm infection [4]: completely eradicated | infections of chronic wounds [5]: eradicated | wound healing [5]: accelerated | Media pH (0.50% NaHAc2 (w/v) in AB minimal media): 5.78 | Media pH (0.75% NaHAc2 (w/v) in AB minimal media): 5.31 | Media pH (1.00% NaHAc2 (w/v) in AB minimal media): 5.09 | Media pH (1.25% NaHAc2 (w/v) in AB minimal media): 4.99 | Media pH (1.50% NaHAc2 (w/v) in AB minimal media): 4.91 | Media pH (1.75% NaHAc2 (w/v) in AB minimal media): 4.86 | Media pH (2.00% NaHAc2 (w/v) in AB minimal media): 4.83 | Media pH (2.25% NaHAc2 (w/v) in AB minimal media): 4.80 | Media pH (2.50% NaHAc2 (w/v) in AB minimal media): 4.78 | Media pH (2.75% NaHAc2 (w/v) in AB minimal media): 4.76 | Media pH (3.00% NaHAc2 (w/v) in AB minimal media): 4.74 | concentration at which the pH value levels out (AB minimal media (FIG. 1)): around 1.5 g/L | pH of aqueous AB minimal media (at 3 g/L of sodium diacetate (FIG. 1)): ~4.75

Source: US11376230B2 (priority 2011, dated 2022)
